# Assay results: patent US20260337177A1, “TEAD CORE INHIBITORS FOR CANCER THERAPEUTICS” (University of Florida Research Foundation, Incorporated, priority 2023, published 2026)
# Where two headings read alike, the source gives them in different places.
# Key:
# CTGF [1] = experiment: CTGF mRNA expression by RT-qPCR in Huh7 cells; assay type: cell-based, human; conditions: dose-dependent
# Procedure: (§1) Huh7 and HepG2 liver cancer cells were seeded at 1×10^6 cells/dish and allowed to adhere overnight. The cells were then treated with indicated doses of compounds in medium for 24 hours. The cells were then harvested, and total RNA was purified using the Aurum total RNA mini kit (Bio-Rad #732-6820) according to the manufacturer's instructions. Complementary DNA was synthesized from 500 ng total RNA template by iScript reverse transcription kit (Bio-Rad #1725037) according to the manufacturer's instructions. Real-time PCR reactions utilized 60 ng cDNA and PrimePCR primers from Bio-Rad (Unique Assay ID: human GAPDH-qHsaCEP0041396, human CTGF-qHsaCEP0024255, human CYR61-qHsaCEP0024230) designed for SYBR Green gene expression analysis (Bio-Rad #1726270). All reactions were carried out in triplicate using Quant Studio 3 PCR system (Applied Biosystems). Relative gene expression level was quantified via ΔΔCt method by using GAPDH as an endogenous reference.
# HepG2 cells = experiment: MTT assay, HepG2 survival; assay type: cell-based, human; conditions: FIG. 7
# CYR61 = CYR61 mRNA expression by RT-qPCR in HepG2 cells; assay type: cell-based, human; conditions: dose-dependent
# Procedure: as §1
# AML12 cells = experiment: AML12 normal liver cell growth inhibition (CCK8); assay type: cell-based
# Huh7 cells [2] = experiment: MTT assay, Huh7 viability; assay type: cell-based, human; conditions: FIG. 9
# NCI-H226 cells = experiment: NCI-H226 cell growth inhibition (CCK-8, 3 days); assay type: cell-based; conditions: Homo sapiens, NCI-H226, 72 h, NF2-deficient mesothelioma, read-out: Antiproliferative IC50, NCI-H226
# Procedure: The inhibitory effects of compound 22 were assessed against YAP TEAD related NF2-deficient mesothelioma cell NCI-H226 and triple negative breast cancer cell Hs578T. The growth inhibition ratio was measured using a CCK-8 assay after 3 days of treatments.
# CTGF and CYR61 = CTGF and CYR61 expression in xenograft tumor tissue (western blotting); assay type: in vivo; conditions: vs vehicle groups
# Excerpt: To elucidate the mechanism of compound 22-mediated antitumor activity in vivo, the expression level of CTGF and CYR61 in the tumor tissue were examined by western blotting.
# TAZ-TEAD = experiment: Co-immunoprecipitation of endogenous TAZ and TEAD in NCI-H226 cells; assay type: cell-based; conditions: 1 μM, 24 hours
# Procedure: To assess if compound 22 inhibits the interaction between YAP/TAZ and TEAD proteins within the cell, compound 22 was administered to NF2-deficient NCI-H226 cells for 24 hours. Subsequently, the endogenous TEAD protein was isolated through immunoprecipitation using a pan-TEAD antibody and examined the immunocomplexes for the presence of YAP/TAZ proteins using anti-YAP/TAZ antibodies (as depicted in FIG. 18).
# […] protein lysate extracted using lysis buffer were incubated with 5 μL pan-TEAD antibody (CST #13295, 33 g/ml) at 4 ° C overnight with rotation, and then incubated with 15 μL Protein G magnetic beads (Fisher #88847) at R.T. for 1 hour with rotation. After binding, beads were washed three times with lysis buffer and one time with ddH2O. IP samples were eluted using 1× gel loading buffer supplied with 20 mM DTT and boiled at 96 ° C for 10 min. […] protein lysate were used for input, and 3% IP flow-thru were used for binding efficiency control. *0 indicated DMSO control. For the detection process, primary antibodies used were: YAP/TAZ rabbit monoclonal antibody (mAb) at a dilution of 1:2000, CST #8418S; Pan-TEAD rabbit mAb at 1:2000, CST #13295S; and 3-actin mouse mAb at 1:8000, Sigma #A5316. Secondary antibodies applied in 1× TBST were: Rabbit IgG-HRP at 1:10000 and Mouse IgG-HRP also at 1:10000.
# CTGF [3] = experiment: CTGF protein expression by western blotting in Huh7 cells; assay type: cell-based, human; conditions: dose-dependent
# Procedure: Treated Huh7 cells were harvested and lysed in cold RIPA lysis buffer containing […] and phosphatase inhibitors. The protein concentrations were determined using the BCA Protein Assay kit. The prepared protein samples were loaded on and separated by 10% SDS-PAGE gel and then were transferred to PVDF membrane. Blots were blocked for 1 h at RT in blocking buffer and incubated with corresponding primary antibodies: anti-CTGF (ab227180), and anti-GAPDH (ab9485), at 4 ° C overnight. Then the blots were incubated with HRP-conjugated anti-rabbit secondary antibody in blocking buffer for 1.5 h at RT. The membranes were imaged with ChemiDoc MP imaging system.
# Huh7 cells [4] = experiment: Colony formation (clonogenic) assay, Huh7; assay type: cell-based; conditions: Homo sapiens, Huh-7, 48 h, read-out: Colony formation, rate of inhibition, Huh7
# Procedure: The ability of compound 22 to inhibit the proliferation of liver cancer cell lines Huh7 and HepG2 was further assessed using a clonogenic assay.
# Huh7 or HepG2 (500 cells/well) were plated into 6 well plates (500 cells per well) and treated with 0 or 5 μM compound 22. Colonies were grown in the absence of soft agar for 2 weeks in a humidified atmosphere of 5% C02 at 37 ° C Crystal violet blue solution (Sigma) was used to stain the colonies for one hour and fixed in methanol followed by counting under a microscope. Triplicate wells were used for each cell line and three independent experiments were performed.
# Huh7 cells [5] = experiment: Huh7 cell proliferation assay (CCK8); assay type: cell-based, human; conditions: for IC50: Homo sapiens
# Procedure: CCK8 assay kit was used to determine antiproliferative activity of synthesized compounds against Huh7 cell line. First, Huh7 cells were seeded into 96-well plates at a density of 3000 cells/well and incubated overnight. Cells were then co-incubated with compounds at 8 concentrations for 72 h. Then, the cell proliferation was determined by the CCK8 kit according to the standard protocol. Experiments were performed in triplicate.
compound,measurement,setting,value
"O=C(CCl)c1c[nH]c2cc(Cl)c(OCc3cccc(C(F)(F)F)c3)cc12 [Compound 22, 2-chloro-1-(6-chloro-5-((3-(trifluoromethyl)benzyl)oxy)-1H-indol-3-yl)ethan-1-one]","CTGF mRNA expression, Huh7",CTGF [1],suppressed
same,"CTGF mRNA expression, Huh7",CTGF [1]; listed as compound 22,significantly inhibited
same,"HepG2 survival, MTT assay",HepG2 cells,inhibits
same,"CYR61 mRNA expression, HepG2",CYR61,significantly inhibited
same,Toxicity towards normal liver cell line AML12,AML12 cells,least toxic
same,"Inhibitory rate, AML12 (inhibitory percentage of AML12 cell growth)","AML12 cells; 10 μM, 3 days",22.1%
same,"Huh7 viability, MTT assay",Huh7 cells [2],inhibits
same,IC50,NCI-H226 cells,400 nM
same,CTGF expression in tumor tissue,CTGF and CYR61,remarkable decrease
same,CYR61 expression in tumor tissue,CTGF and CYR61,remarkable decrease
same,Co-IP of TAZ with pan-TEAD antibody,TAZ-TEAD,not affecting TAZ
same,"CTGF protein expression, Huh7",CTGF [3],suppression of CTGF protein production
same,inhibition at 5 µM,Huh7 cells [4],62.5%
same,IC50,"Huh7 cells [5]; Huh-7, 72 h, 3 days, CCK8, mean ± SD of three independent experiments, read-out: Cell proliferation assay IC50, Huh7",0.9 ± 0.3 µM
same,IC50,"Huh7 cells [5]; Huh-7, Table 3 column is in μM, read-out: Huh7 cell growth inhibition / proliferation IC50",0.9 µM
same,"Activity ratio, 3-CF3 derivative compound 22 vs para-analogue compound 23","Huh7 cells [5]; more active than compound 23, Huh7",16 fold
